What was measured:
[1] = cited from earlier work; for Absorption before reaching the colon: oral administration, sulphapyridine and 5-ASA without the azo-bond
[2] = Total urinary excretion of 5-ASA and N-acetyl-5-ASA after single oral dose in seven healthy volunteers; format: in vivo, healthy volunteers (human); conditions: 7 volunteers
Protocol: (§1) Each of the batches of coated granules were separately packed into size 00 hard gelatin capsules (LOK-CAP, Eli Lilly) in an amount of 400 mg granules per capsule. The capsules were then spray coated with […] per capsule of a coating solution of the following formula: […]
(§2) Seven healthy volunteers were then each given blind on three separate occasions a single dose consisting of (a) 8 tablets of enteric coated 500 mg sulphasalazine tablets, (b) 8 of the enteric coated capsules containing the 20% Eudragit coated 5-ASA granules, and (c) 8 of the enteric coated capsules containing the 25% Eudragit coated 5-ASA granules. The serum levels of 5-ASA and N-acetyl-5-ASA at various times following administration were measured together with the total urinary excretion of 5-ASA and N-acetyl-5-ASA. In each case the values are given to three significant figures with 0 representing less than 2 ng/ml.

[3] = Serum levels of 5-ASA and N-acetyl-5-ASA after single oral dose in seven healthy volunteers; format: in vivo, healthy volunteers (human); conditions: 7 volunteers
Protocol: as §1
as §2, with “ng/ml. The following abbreviations are used:” for “ng/ml.”
Tmax =time for the maximum serum concentration in hours, median and interquartials ranges
Cmax =maximum serum concentration attained in ng/ml
Thalf =estimated biological half life of elimination
KE=estimated first order in elimination rate constant

Mean urinary excretion of 5-ASA ([2]; 5-ASA) [ng/mL] | Mean urinary excretion of N-Ac-5-ASA ([2]; N-Ac-5-ASA) [ng/mL] | Thalf (estimated biological half life of elimination) of 5-ASA ([3]; 5-ASA) | Thalf (estimated biological half life of elimination) of N-Ac-5-ASA ([3]; N-Ac-5-ASA) | Structure (SMILES) | Pharmacologically active agent in treatment of colonic disease with SASP ([1]; Khan et al, The Lancet 1977) | Absorption before reaching the colon [1]
– | – | – | – | Nc1ccc(O)c(C(=O)O)c1 [5-ASA, 5-amino-salicylic acid] | pharmacologically active agent | almost entirely absorbed from the small intestine before reaching the colon
0 ± 0 | 170 ± 35 | 19.4 ± 12.9 | 60.1 ± 50.1 | O=C(O)c1cc(/N=N/c2ccc(S(=O)(=O)Nc3ccccn3)cc2)ccc1O [Sulphasalazine, Salicylazosulphapyridine] | – | only absorbed to a limited extent before reaching the colon
– | – | – | – | Nc1ccc(S(=O)(=O)Nc2ccccn2)cc1 [sulphapyridine] | – | almost entirely absorbed from the small intestine before reaching the colon
